Results published in PubChem BioAssay (NCI).
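Values below derive from 48-hour exposures of cells grown in 96-well plates, with endpoints linearly interpolated between the two concentrations bracketing the appropriate inhibition level. TGI marks complete inhibition of growth.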

How the values were obtained:
Assay in all cases: NCI tumour cell line growth inhibition, 48 h
[1] = system: 786-0 renal
[2] = system: A498 renal
[3] = system: A549 NSCLC
[4] = system: ACHN renal
[5] = system: BT-549 breast
[6] = system: CAKI-1 renal
[7] = system: COLO 205 colon
[8] = system: DU-145 prostate
[9] = system: HCC-2998 colon
[10] = system: HCT-116 colon
[11] = system: HCT-15 colon
[12] = system: HL-60(TB) leukemia
[13] = system: HOP-62 NSCLC
[14] = system: HOP-92 NSCLC
[15] = system: HS 578T breast
[16] = system: HT29 colon
[17] = system: IGROV1 ovarian
[18] = system: KM12 colon
[19] = system: LOX IMVI melanoma
[20] = system: M14 melanoma
[21] = system: MALME-3M melanoma
[22] = system: MCF7 breast
[23] = system: MDA-MB-231 breast
[24] = system: MDA-MB-435
[25] = system: MDA-N
[26] = system: MOLT-4 leukemia
[27] = system: NCI-H226 lung
[28] = system: NCI-H23 lung
[29] = system: NCI-H460 lung
[30] = system: NCI-H522 lung
[31] = system: NCI/ADR-RES ovarian
[32] = system: OVCAR-3 ovarian
[33] = system: OVCAR-4 ovarian
[34] = system: OVCAR-5 ovarian
[35] = system: OVCAR-8 ovarian
[36] = system: PC-3 prostate
[37] = system: RPMI-8226 leukemia
[38] = system: RXF 393 renal
[39] = system: SF-268 CNS
[40] = system: SF-295 CNS
[41] = system: SF-539 CNS
[42] = system: SK-MEL-2 melanoma
[43] = system: SK-MEL-28 melanoma
[44] = system: SK-MEL-5 melanoma
[45] = system: SK-OV-3 ovarian
[46] = system: SN12C renal
[47] = system: SNB-19 CNS
[48] = system: SNB-75 CNS
[49] = system: SR leukemia
[50] = system: SW-620 colon
[51] = system: T-47D breast
[52] = system: TK-10 renal
[53] = system: U251 CNS
[54] = system: UACC-257 melanoma
[55] = system: UACC-62 melanoma
[56] = system: UO-31 renal
[57] = system: CCRF-CEM leukemia
[58] = system: EKVX NSCLC
[59] = system: K-562 leukemia

## COC(=O)C12CCC(C(F)(F)C1=O)C2(C)C (configuration not stated)
[1]
  TGI: > 100 µM
[2]
  TGI: > 100 µM
[3]
  TGI: > 100 µM
[4]
  TGI: > 100 µM
[5]
  TGI: > 100 µM
[6]
  TGI: > 100 µM
[7]
  TGI: > 100 µM
[8]
  TGI: > 100 µM
[9]
  TGI: > 100 µM
[10]
  TGI: > 100 µM
[11]
  TGI: > 100 µM
[12]
  TGI: > 100 µM
[13]
  TGI: > 100 µM
[14]
  TGI: > 100 µM
[15]
  TGI: > 100 µM
[16]
  TGI: > 100 µM
[17]
  TGI: > 100 µM
[18]
  TGI: > 100 µM
[19]
  TGI: > 100 µM
[20]
  TGI: > 100 µM
[21]
  TGI: > 100 µM
[22]
  TGI: > 100 µM
[23]
  TGI: > 100 µM
[24]
  TGI: > 100 µM
[25]
  TGI: > 100 µM
[26]
  TGI: > 100 µM
[27]
  TGI: > 100 µM
[28]
  TGI: > 100 µM
[29]
  TGI: > 100 µM
[30]
  TGI: > 100 µM
[31]
  TGI: > 100 µM
[32]
  TGI: > 100 µM
[33]
  TGI: > 100 µM
[34]
  TGI: > 100 µM
[35]
  TGI: > 100 µM
[36]
  TGI: > 100 µM
[37]
  TGI: > 100 µM
[38]
  TGI: > 100 µM
[39]
  TGI: > 100 µM
[40]
  TGI: > 100 µM
[41]
  TGI: > 100 µM
[42]
  TGI: > 100 µM
[43]
  TGI: > 100 µM
[44]
  TGI: > 100 µM
[45]
  TGI: > 100 µM
[46]
  TGI: > 100 µM
[47]
  TGI: > 100 µM
[48]
  TGI: > 100 µM
[49]
  TGI: > 100 µM
[50]
  TGI: > 100 µM
[51]
  TGI: > 100 µM
[52]
  TGI: > 100 µM
[53]
  TGI: > 100 µM
[54]
  TGI: > 100 µM
[55]
  TGI: > 100 µM
[56]
  TGI: > 100 µM

## Cc1ccc2c(c1)C(=O)c1[nH]c3ccc(F)cc3c1CO2
[1]
  TGI: > 100 µM
[2]
  TGI: > 100 µM
[3]
  TGI: > 100 µM
[4]
  TGI: > 100 µM
[5]
  TGI: > 100 µM
[6]
  TGI: > 100 µM
[57]
  TGI: > 100 µM
[7]
  TGI: > 100 µM
[8]
  TGI: > 100 µM
[58]
  TGI: > 100 µM
[9]
  TGI: > 100 µM
[10]
  TGI: > 100 µM
[11]
  TGI: > 100 µM
[12]
  TGI: > 100 µM
[13]
  TGI: 36 µM
[14]
  TGI: > 100 µM
[15]
  TGI: 58.1 µM
[16]
  TGI: > 100 µM
[17]
  TGI: > 100 µM
[59]
  TGI: > 100 µM
[18]
  TGI: > 100 µM
[19]
  TGI: > 100 µM
[20]
  TGI: > 100 µM
[21]
  TGI: > 100 µM
[22]
  TGI: > 100 µM
[23]
  TGI: > 100 µM
[24]
  TGI: > 100 µM
[25]
  TGI: > 100 µM
[26]
  TGI: > 100 µM
[27]
  TGI: > 100 µM
[28]
  TGI: > 100 µM
[29]
  TGI: > 100 µM
[30]
  TGI: > 100 µM
[31]
  TGI: > 100 µM
[32]
  TGI: > 100 µM
[33]
  TGI: 88.8 µM
[34]
  TGI: > 100 µM
[35]
  TGI: 62.2 µM
[36]
  TGI: > 100 µM
[37]
  TGI: > 100 µM
[39]
  TGI: > 100 µM
[40]
  TGI: 31.6 µM
[41]
  TGI: 49.8 µM
[42]
  TGI: 40.6 µM
[43]
  TGI: > 100 µM
[44]
  TGI: > 100 µM
[45]
  TGI: 43 µM
[46]
  TGI: > 100 µM
[47]
  TGI: 46.8 µM
[48]
  TGI: 40.4 µM
[49]
  TGI: > 100 µM
[50]
  TGI: > 100 µM
[51]
  TGI: > 100 µM
[52]
  TGI: 92.6 µM
[53]
  TGI: 50.2 µM
[54]
  TGI: > 100 µM
[55]
  TGI: 98.2 µM
[56]
  TGI: > 100 µM

## COc1ccc(P2(=S)Oc3ccc(C(c4ccccc4)(c4ccccc4)c4ccccc4)cc3O2)cc1 (configuration not stated)
[1]
  TGI: 32.2 µM
[2]
  TGI: 31.8 µM
[3]
  TGI: 30.7 µM
[4]
  TGI: 30.5 µM
[5]
  TGI: 41.3 µM
[6]
  TGI: 33.9 µM
[57]
  TGI: 49 µM
[7]
  TGI: 34.5 µM
[8]
  TGI: 35.1 µM
[58]
  TGI: 34.6 µM
[9]
  TGI: 30.6 µM
[10]
  TGI: 32 µM
[11]
  TGI: 34.8 µM
[12]
  TGI: 32.1 µM
[13]
  TGI: 41.5 µM
[14]
  TGI: 32.4 µM
[15]
  TGI: 41 µM
[16]
  TGI: 33.4 µM
[17]
  TGI: 32.1 µM
[59]
  TGI: 33.8 µM
[18]
  TGI: 28.5 µM
[19]
  TGI: 28 µM
[20]
  TGI: 27.3 µM
[21]
  TGI: 34.8 µM
[22]
  TGI: 34.9 µM
[23]
  TGI: 38.9 µM
[24]
  TGI: 30.1 µM
[25]
  TGI: 32.7 µM
[26]
  TGI: 41.7 µM
[27]
  TGI: 31.6 µM
[28]
  TGI: 31.7 µM
[29]
  TGI: 34.8 µM
[30]
  TGI: 31.9 µM
[31]
  TGI: 39.5 µM
[32]
  TGI: 31 µM
[33]
  TGI: 25.9 µM
[34]
  TGI: 33.6 µM
[35]
  TGI: 29.8 µM
[36]
  TGI: 27.1 µM
[37]
  TGI: 48.1 µM
[39]
  TGI: 32.2 µM
[40]
  TGI: 33.5 µM
[41]
  TGI: 34.4 µM
[42]
  TGI: 35.3 µM
[43]
  TGI: 34.3 µM
[44]
  TGI: 36.2 µM
[45]
  TGI: 37.5 µM
[46]
  TGI: 31.7 µM
[47]
  TGI: 29.8 µM
[48]
  TGI: 26.8 µM
[49]
  TGI: 47.5 µM
[50]
  TGI: 34.6 µM
[51]
  TGI: 28 µM
[52]
  TGI: 33.4 µM
[53]
  TGI: 31.9 µM
[54]
  TGI: 34.2 µM
[55]
  TGI: 26.2 µM
[56]
  TGI: 30.8 µM
